Reference: US6270780A, “Cosmetic compositions containing resveratrol” (Chesebrough-Pond's USA Co., division of Conopco, priority 1998, dated 2001)
Like-named read-outs stand apart in the source and are kept apart here.

Tested on: Transglutaminase (TG-1)
Test: ELISA based TG-1 assay, differentiation of keratinocytes
Format: cell-based, human
From the text: Methodology for Transglutaminase Measurement
During the process of terminal differentiation in the epidermis, a 15 nm thick layer of protein, known as the cornified envelope (CE) is formed on the inner surface of the cell periphery. The CE is composed of numerous distinct proteins which have been cross-linked together by the formation of N-((-glutamyl) lysine isodipeptide bonds catalyzed by the action of at least two different transglutaminases expressed in the epidermis. Transglutaminase (TG-1) is expressed in abundance in the differentiated layers of the epidermis, especially the granular layer, but is absent in the undifferentiated basal epidermis. Thus, TG-1 is a useful marker of epidermal keratinocyte differentiation with high TG-1 levels indicating a more differentiated state. An ELISA based TG-1 assay, using a TG-1 antibody, was used to assess the state of differentiation of the cultured keratinocytes in the examples that follow.
The level of TG-1 was measured as follows. Keratinocytes were obtained as described in Example 2. For the experiment, about 30,000 cells were plated into each well of 6 well plates and grown for five days, until the cells reach about 20-30% confluence. 2 ml/well of fresh KGM were added daily with 2 μl of 2-50 mM resveratrol in DMSO for 3 days. Control wells also received 2 μl of DMSO. After 3 days of treatment, cells were washed twice with PBS and placed in freezer for 2 hours. Cells were then thawed for 2 hours. DNA content of the cells were quantitated by using the DNA binding flurophore, bis-benzimidazole (Hoechst 33258) and measuring the specific fluorescence of the DNA-bound flurophore at 450 nm (excitation at 360 nm).
TG-1 levels of the cells in the wells were determined using the TG-1 specific monoclonal antibody (BC1) (first antibody) (obtained from Amersham Life Sciences) and using a peroxidase labeled rabbit antimouse IgG fragment (second antibody). The plates were blocked by 5% nonfat milk in TBS (Tris buffered saline, 0.01 M Tris, 0.150 M sodium chloride, pH 8.0) for one hour followed by 2 hour incubation with the first antibody (1:4,000 fold dilution) in 1% milk/TBS at room temperature. After rinsing the plates three times with 1% milk/TBS containing 0.05% Tween 20, the plates were incubated with 1:4000 dilution of the second antibody at room temperature for two hours. The plates were rinsed three times with 1% milk/TBS/Tween and three times with TBS. Color was developed by incubation with o-phenylene diamine and hydrogen peroxide. The absorbance was read at 492 nm on a Ultrospec 3000 spectrophotometer (Pharmacia Biotech) and TG-1 levels were calculated as Abs/DNA fluorescence. The mean±standard deviation of at least 3 separate wells were used for calculation and statistical analysis of the data. Values were expressed as absorbance for TG-1 per arbitrary unit of DNA fluorescence of triplicate wells±standard deviation. Results were also expressed as % of control.

Oc1ccc(/C=C/c2cc(O)cc(O)c2)cc1 [Resveratrol, 3,4'5-stilbenetriol]
transglutaminase expression of keratinocytes vs control (Experiment 1, 10 μM): not significantly different from control | TG-1 levels/μg DNA (Experiment 1, 10 μM, 3 days): 8.49 ± 1.77 /μg DNA | TG-1 levels/μg DNA (Experiment 1, 25 μM, 3 days): 10.92 ± 2.29 /μg DNA | TG-1 levels/μg DNA (Experiment 1, 50 μM, 3 days): 22.2 ± 1.50 /μg DNA | TG-1 levels/μg DNA (Experiment 2, 2 μM, 3 days): 3.42 ± 0.42 /μg DNA | TG-1 levels/μg DNA (Experiment 2, 5 μM, 3 days): 3.51 ± 0.41 /μg DNA | TG-1 levels/μg DNA (Experiment 2, 10 μM, 3 days): 3.61 ± 0.17 /μg DNA | TG-1 levels/μg DNA (Experiment 2, 25 μM, 3 days): 4.69 ± 0.21 /μg DNA | TG-1 levels/μg DNA (Experiment 2, 50 μM, 3 days): 4.65 ± 0.46 /μg DNA | keratinocyte differentiation (Experiment 2, all concentrations of 2 μM and higher): significantly increased keratinocyte differentiation | activity at 10 µM (Homo sapiens, Keratinocyte, 72 h, Experiment 1, 10 μM, 3 days, read-out: TG-1 levels, % of control): 126% | activity at 25 µM (Homo sapiens, Keratinocyte, 72 h, Experiment 1, 25 μM, 3 days, read-out: TG-1 levels, % of control): 162% | activity at 50 µM (Homo sapiens, Keratinocyte, 72 h, Experiment 1, 50 μM, 3 days, read-out: TG-1 levels, % of control): 329% | activity at 2 µM (Homo sapiens, Keratinocyte, 72 h, Experiment 2, 2 μM, 3 days, read-out: TG-1 levels, % of control): 179% | activity at 5 µM (Homo sapiens, Keratinocyte, 72 h, Experiment 2, 5 μM, 3 days, read-out: TG-1 levels, % of control): 184% | activity at 10 µM (Homo sapiens, Keratinocyte, 72 h, Experiment 2, 10 μM, 3 days, read-out: TG-1 levels, % of control): 189% | activity at 25 µM (Homo sapiens, Keratinocyte, 72 h, Experiment 2, 25 μM, 3 days, read-out: TG-1 levels, % of control): 246% | activity at 50 µM (Homo sapiens, Keratinocyte, 72 h, Experiment 2, 50 μM, 3 days, read-out: TG-1 levels, % of control): 243% | transglutaminase expression of keratinocytes (all other concentrations): significantly increased transglutaminase expression of keratinocytes
